# According to ChEMBL document CHEMBL1149783, “New stereoselective titanium reductive amination synthesis of 3-amino and polyaminosterol derivatives possessing antimicrobial activities” (2008):
# What was measured:
# Assay type in all cases: functional
# Escherichia coli = assay: Antibacterial activity against Escherichia coli CIP 54127 by broth microdilution method
# Candida albicans = assay: Antifungal activity against Candida albicans CIP 1180-79 by broth microdilution method
# Staphylococcus aureus = assay: Antibacterial activity against Staphylococcus aureus CIP 4.83 by broth microdilution method
# Enterococcus faecalis = assay: Antibacterial activity against Enterococcus faecalis CIP 103015 by broth microdilution method
# Saccharomyces cerevisiae = assay: Antifungal activity against Saccharomyces cerevisiae CIP 28383 by broth microdilution method
Structure (SMILES),MIC (Escherichia coli),MIC (Candida albicans),MIC (Staphylococcus aureus),MIC (Enterococcus faecalis),MIC (Saccharomyces cerevisiae)
CC(C)[C@@H](CC[C@@H](C)[C@H]1CC[C@H]2[C@@H]3[C@H](O)C[C@H]4C[C@@H](NCCCNCCCCNCCCN)CC[C@]4(C)[C@H]3CC[C@]12C)OS(=O)(=O)O.Cl.Cl.Cl.Cl [TRODUSQUEMINE HYDROCHLORIDE],4 µg/mL,4 µg/mL,1 µg/mL,–,–
CN[C@H]1CC[C@@]2(C)C(=CC[C@H]3[C@@H]4CC[C@H]([C@H](C)CCCC(C)C)[C@@]4(C)CC[C@@H]32)C1,> 50 µg/mL,> 50 µg/mL,6.25 µg/mL,6.25 µg/mL,3.12 µg/mL
CC(C)CCC[C@@H](C)[C@H]1CC[C@H]2[C@@H]3CCC4=C[C@@H](NCCCCCCCN)CC[C@]4(C)[C@H]3CC[C@]12C,> 50 µg/mL,> 50 µg/mL,> 50 µg/mL,> 50 µg/mL,> 50 µg/mL
CC(C)CCCC(C)C1CCC2C3CCC4CC(NCCCCCCCN)CCC4(C)C3CCC12C (stereo not drawn),> 50 µg/mL,> 50 µg/mL,> 50 µg/mL,> 50 µg/mL,> 50 µg/mL
CC(C)CCC[C@@H](C)[C@H]1CC[C@H]2[C@@H]3CC=C4C[C@@H](NCCCCN)CC[C@]4(C)[C@H]3CC[C@]12C,6.25 µg/mL,> 50 µg/mL,1.56 µg/mL,6.25 µg/mL,> 50 µg/mL
CC(C)CCC[C@@H](C)[C@H]1CC[C@H]2[C@@H]3CC[C@H]4C[C@@H](NCCN)CC[C@]4(C)[C@H]3CC[C@]12C,> 50 µg/mL,> 50 µg/mL,12.5 µg/mL,> 50 µg/mL,50 µg/mL
CC(C)CCC[C@@H](C)[C@H]1CC[C@H]2[C@@H]3CC[C@H]4C[C@@H](NCCCCN)CC[C@]4(C)[C@H]3CC[C@]12C,> 50 µg/mL,25 µg/mL,12.5 µg/mL,> 50 µg/mL,50 µg/mL
CC(C)CCC[C@@H](C)[C@H]1CC[C@H]2[C@@H]3CC=C4C[C@@H](NCCCNCCCCNCCCN)CC[C@]4(C)[C@H]3CC[C@]12C,> 50 µg/mL,> 50 µg/mL,6.25 µg/mL,> 50 µg/mL,> 50 µg/mL
CC(C)CCCC(C)C1CCC2C3CCC4CC(NCCCNCCCCNCCCN)CCC4(C)C3CCC12C (stereo not drawn),> 50 µg/mL,50 µg/mL,3.12 µg/mL,12.5 µg/mL,6.25 µg/mL
CC(C)CCC[C@@H](C)[C@H]1CC[C@H]2[C@@H]3CCC4=C[C@@H](NCCCCCCN)CC[C@]4(C)[C@H]3CC[C@]12C,> 50 µg/mL,> 50 µg/mL,> 50 µg/mL,> 50 µg/mL,> 50 µg/mL
CNC1CCC2(C)C(CCC3C2CCC2(C)C(C(C)CCCC(C)C)CCC32)C1 (stereo not drawn),> 50 µg/mL,12.5 µg/mL,6.25 µg/mL,6.25 µg/mL,12.5 µg/mL
CC(C)CCC[C@@H](C)[C@H]1CC[C@H]2[C@@H]3CC=C4C[C@@H](NCCN)CC[C@]4(C)[C@H]3CC[C@]12C,12.5 µg/mL,> 50 µg/mL,12.5 µg/mL,25 µg/mL,> 50 µg/mL
CC(C)CCC[C@@H](C)[C@H]1CC[C@H]2[C@@H]3CCC4=C[C@@H](NCCCCCCCCN)CC[C@]4(C)[C@H]3CC[C@]12C,> 50 µg/mL,> 50 µg/mL,> 50 µg/mL,> 50 µg/mL,> 50 µg/mL
CC(C)CCC[C@@H](C)[C@H]1CC[C@H]2[C@@H]3CCC4=C[C@@H](NCCCCCCCCCN)CC[C@]4(C)[C@H]3CC[C@]12C,> 50 µg/mL,> 50 µg/mL,> 50 µg/mL,> 50 µg/mL,> 50 µg/mL
CC(C)CCC[C@@H](C)[C@H]1CC[C@H]2[C@@H]3CCC4=C[C@@H](NCCCCCCCCCCN)CC[C@]4(C)[C@H]3CC[C@]12C,> 50 µg/mL,> 50 µg/mL,> 50 µg/mL,> 50 µg/mL,> 50 µg/mL
CC(C)CCC[C@@H](C)[C@H]1CC[C@H]2[C@@H]3CC[C@H]4C[C@@H](NCCCCCCN)CC[C@]4(C)[C@H]3CC[C@]12C,> 50 µg/mL,> 50 µg/mL,> 50 µg/mL,> 50 µg/mL,> 50 µg/mL
CC(C)CCC[C@@H](C)[C@H]1CC[C@H]2[C@@H]3CCC4=C[C@@H](NCCCCN)CC[C@]4(C)[C@H]3CC[C@]12C,25 µg/mL,6.25 µg/mL,6.25 µg/mL,6.25 µg/mL,12.5 µg/mL
CC(C)CCC[C@@H](C)[C@H]1CC[C@H]2[C@@H]3CCC4=C[C@@H](NCCCCCCCCCCCCN)CC[C@]4(C)[C@H]3CC[C@]12C,> 50 µg/mL,> 50 µg/mL,> 50 µg/mL,> 50 µg/mL,> 50 µg/mL
CC(C)CCC[C@@H](C)[C@H]1CC[C@H]2[C@@H]3CC[C@H]4C[C@@H](NCCCN)CC[C@]4(C)[C@H]3CC[C@]12C,> 50 µg/mL,> 50 µg/mL,> 50 µg/mL,> 50 µg/mL,> 50 µg/mL
CC(C)CCC[C@@H](C)[C@H]1CC[C@H]2[C@@H]3CCC4=C[C@@H](NCCN)CC[C@]4(C)[C@H]3CC[C@]12C,> 50 µg/mL,> 50 µg/mL,12.5 µg/mL,> 50 µg/mL,> 50 µg/mL
CN[C@@H]1C=C2CC[C@H]3[C@@H]4CC[C@H]([C@H](C)CCCC(C)C)[C@@]4(C)CC[C@@H]3[C@@]2(C)CC1,> 50 µg/mL,12.5 µg/mL,1.56 µg/mL,25 µg/mL,12.5 µg/mL
CC(C)CCC[C@@H](C)[C@H]1CC[C@H]2[C@@H]3CCC4=C[C@@H](NCCCN)CC[C@]4(C)[C@H]3CC[C@]12C,> 50 µg/mL,25 µg/mL,12.5 µg/mL,> 50 µg/mL,> 50 µg/mL
CC(C)CCCC(C)C1CCC2C3CCC4CC(N)CCC4(C)C3CCC12C (stereo not drawn),> 50 µg/mL,50 µg/mL,> 50 µg/mL,50 µg/mL,> 50 µg/mL
CC(C)CCC[C@@H](C)[C@H]1CC[C@H]2[C@@H]3CCC4=C[C@@H](NCCCCCN)CC[C@]4(C)[C@H]3CC[C@]12C,> 50 µg/mL,> 50 µg/mL,6.25 µg/mL,6.25 µg/mL,> 50 µg/mL
CC(C)CCC[C@@H](C)[C@H]1CC[C@H]2[C@@H]3CC=C4C[C@@H](NCCCN)CC[C@]4(C)[C@H]3CC[C@]12C,6.25 µg/mL,> 50 µg/mL,6.25 µg/mL,6.25 µg/mL,> 50 µg/mL
CC(C)CCC[C@@H](C)[C@H]1CC[C@H]2[C@@H]3CC[C@H]4C[C@@H](NCCCCCN)CC[C@]4(C)[C@H]3CC[C@]12C,> 50 µg/mL,50 µg/mL,6.25 µg/mL,50 µg/mL,25 µg/mL
CC(C)CCC[C@@H](C)[C@H]1CC[C@H]2[C@@H]3CCC4=C[C@@H](NCCCNCCCCNCCCN)CC[C@]4(C)[C@H]3CC[C@]12C,50 µg/mL,50 µg/mL,6.25 µg/mL,> 50 µg/mL,> 50 µg/mL
